Source: patent US8536187B2 (Gilead Sciences, Inc., priority 2008, dated 2013)

Assays:
[1] = CC50 assay (CellTiter-Glo) in Huh-7 HCV replicon cells; assay type: cell-based; conditions: human
How it was run: (§1)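 Cytotoxicity (CC50) read by CellTiter-Glo luminescence after 10 min, and antiviral EC50 by luciferase signal after 30 min lysis with substrate, both at room temperature. Preceding step: 3-day exposure of 6000 Huh-7 HCV replicon cells per well to compound dilution series at 37° C, 5% CO2, in 0.5% DMSO.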

[2] = tested on: HCV replicon in human hepatoma Huh-7 cell line; assay: Anti-HCV replicon assay, EC50 (luciferase luminescence); assay type: cell-based; conditions: Hepatitis C virus, Huh-7, 72 h
How it was run: as §1

SMILES | CC50 at 3 days ([1]; Table 2, 3 days incubation) | EC50 [2] | CC50 at 3 days ([1]; Table 1, 3 days incubation)
COc1ccc(-c2ccc3nc(NCc4ccc(F)c(F)c4)nc(NCC(F)(F)F)c3n2)cc1S(C)(=O)=O [Example 161, N^2-(3,4-difluorobenzyl)-6-(4-methoxy-3-(methylsulfonyl)phenyl)-N^4-(2,2,2-trifluoroethyl) pyrido[3,2-d]pyrimidine-2,4-diamine] | > 10 µM | < 0.1 µM | 
NS(=O)(=O)c1ccc(CNc2nc(NC3(C(F)(F)F)CC3)c3nc(-c4ccc(F)cc4)ccc3n2)c(Cl)c1 [Example 43, 3-chloro-4-((6-(4-fluorophenyl)-4-(1-(trifluoromethyl)cyclopropyl-amino)pyrido[3,2-d]pyrimidin-2-ylamino)methyl)benzene-sulfonamide] | > 10 µM | 0.25 to 2 µM | 
C[C@H](Cn1cncn1)Nc1nc(NCC(F)(F)F)c2nc(-c3ccc(OC4CC4)nc3)ccc2n1 [Example 258, N^2-((R)-1-(1H-1,2,4-triazol-1-yl)propan-2-yl)-6-(6-cyclo-propoxypyridin-3-yl)-N^4-(2,2,2-trifluoroethyl)pyrido[3,2-d] pyrimidine-2,4-diamine] | > 10 µM | < 0.1 µM | 
CC(C)(C)NS(=O)(=O)c1cc(F)cc(CNc2nc(NC3(C(F)(F)F)CC3)c3nc(-c4ccc(F)nc4)ccc3n2)c1 [Example 78, N-tert-butyl-3-fluoro-5-((6-(6-fluoropyridin-3-yl)-4-(1-(trifluoromethyl)cyclopropyl-amino)pyrido[3,2-d]pyrimidin-2-ylamino)methyl)benzene-sulfonamide] | > 10 µM | 0.1 to 0.25 µM | 
CS(=O)(=O)c1cccc(-c2ccc3nc(NCCS(N)(=O)=O)nc(NCC(F)(F)F)c3n2)c1 [Example 137, 2-(6-(3-(methylsulfonyl)phenyl)-4-(2,2,2-trifluoroethylamino)pyrido [3,2-d]pyrimidin-2-ylamino)ethanesulfonamide] | > 10 µM | 0.1 to 0.25 µM | 
C[C@@H](Nc1nc(OC2CC2)c2nc(-c3ccc(OC(F)F)c(S(C)(=O)=O)c3)ccc2n1)c1ccc(S(N)(=O)=O)cc1 [Example 185, 4-((R)-1-(4-cyclopropoxy-6-(4-(difluoromethoxy)-3-(methylsulfonyl)phenyl)pyrido [3,2-d]pyrimidin-2-ylamino)ethyl)benzenesulfonamide] | > 10 µM | 0.1 to 0.25 µM | 
COc1ccc(-c2ccc3nc(NCc4ccc(S(N)(=O)=O)cc4)nc(NCC(F)(F)F)c3n2)cc1S(=O)(=O)C1CC1 [Example 157, 4-((6-(3-(cyclopropylsulfonyl)-4-methoxyphenyl)-4-(2,2,2-trifluoroethylamino)pyrido [3,2-d]pyrimidin-2-ylamino)methyl)benzenesulfonamide] | > 10 µM | < 0.1 µM | 
COc1ccc(-c2ccc3nc(NCCS(N)(=O)=O)nc(NC4(C(F)(F)F)CC4)c3n2)cc1S(C)(=O)=O [Example 93, 2-(6-(4-methoxy-3-(methylsulfonyl)phenyl)-4-(1-(trifluoromethyl)cyclopropyl-amino)pyrido[3,2-d]pyrimidin-2-ylamino)ethanesulfonamide] | 1 to 10 µM | < 0.1 µM | 
CC(C)Oc1nc(NCc2ccc(-n3cncn3)cc2)nc2ccc(-c3cccc(S(C)(=O)=O)c3)nc12 [Example 198, N-(4-(1H-1,2,4-triazol-1-yl)benzyl)-4-isopropoxy-6-(3-(methylsulfonyl)phenyl)pyrido [3,2-d]pyrimidin-2-amine] | > 10 µM | < 0.1 µM | 
C[C@@H](Nc1nc(NC2(C(F)(F)F)CC2)c2nc(-c3ccc(N)nc3)ccc2n1)c1ccc(-n2cncn2)cc1 [Example 84, N^2-((R)-1-(4-(1H-1,2,4-triazol-1-yl)phenyl)ethyl)-6-(6-aminopyridin-3-yl)-N^4-(1-(trifluoromethyl)cyclopropyl) pyrido[3,2-d]pyrimidine-2,4-diamine] | 1 to 10 µM | < 0.1 µM | 
CCOc1ccc(-c2ccc3nc(NCc4ccc(-n5cncn5)cc4)nc(NCC(F)(F)F)c3n2)cc1S(C)(=O)=O [Example 183, N^2-(4-(1H-1,2,4-triazol-1-yl)benzyl)-6-(4-ethoxy-3-(methylsulfonyl)phenyl)-N^4-(2,2,2-trifluoroethyl)pyrido [3,2-d]pyrimidine-2,4-diamine] | 1 to 10 µM | < 0.1 µM | 
COc1ccc(-c2ccc3nc(NCc4ccc(S(N)(=O)=O)cc4)nc(NC4(C(F)(F)F)CC4)c3n2)cc1S(C)(=O)=O [Example 28, 4-{[6-(3-Methanesulfonyl-4-methoxy-phenyl)-4-(1-trifluoromethyl-cyclopropylamino)-pyrido[3,2-d]pyrimidin-2-ylamino]-methyl}-benzenesulfonamide] | 1 to 10 µM | < 0.1 µM | 
COc1ccc(-c2ccc3nc(NCc4ccc(S(N)(=O)=O)cc4)nc(NCC(F)(F)F)c3n2)cc1S(=O)(=O)N1CCOCC1 [Example 227, 4-((6-(4-methoxy-3-(morpholinosulfonyl)phenyl)-4-(2,2,2-trifluoroethylamino)pyrido[3,2-d]pyrimidin-2-ylamino)methyl)benzene-sulfonamide] | 1 to 10 µM | < 0.1 µM | 
Cc1cc(CNc2nc(NC3(C(F)(F)F)CC3)c3nc(-c4ccc(F)cc4)ccc3n2)cc(S(N)(=O)=O)c1 [Example 82, 3-((6-(4-fluorophenyl)-4-(1-(trifluoromethyl)cyclopropyl-amino)pyrido[3,2-d]pyrimidin-2-ylamino)methyl)-5-methylbenzenesulfonamide] | > 10 µM | < 0.1 µM | 
NS(=O)(=O)c1ccc(CNc2nc(NC3(C(F)(F)F)CC3)c3nc(-c4ccc(OC(F)F)cc4)ccc3n2)cc1 [Example 61, 4-((6-(4-(difluoromethoxy)phenyl)-4-(1-(trifluoromethyl)cyclopropylamino)pyrido[3,2-d]pyrimidin-2-ylamino)methyl) benzenesulfonamide] | 1 to 10 µM | < 0.1 µM | 
CS(=O)(=O)c1cccc(-c2ccc3nc(NCc4ccc(-n5cccn5)cc4)nc(NCC(F)(F)F)c3n2)c1 [Example 167, N^2-(4-(1H-pyrazol-1-yl)benzyl)-6-(3-(methylsulfonyl)phenyl)-N^4-(2,2,2-trifluoroethyl)pyrido [3,2-d]pyrimidine-2,4-diamine] | > 10 µM | < 0.1 µM | 
Cc1cc(S(N)(=O)=O)ccc1CNc1nc(NCC(F)(F)F)c2nc(-c3ccc(F)cc3)ccc2n1 [Example 4, 4-{[6-(4-Fluoro-phenyl)-4-(2,2,2-trifluoro-ethylamino)-pyrido[3,2-d]pyrimidin-2-ylamino]-methyl}-3-methyl-benzenesulfonamide] |  | 0.25 to 2 µM | > 25 µM
CC1(Oc2nc(NCc3ccc(-n4cncn4)cc3)nc3ccc(-c4ccc(OC5CCC5)nc4)nc23)CC1 [Example 249, N-(4-(1H-1,2,4-triazol-1-yl)benzyl)-6-(6-cyclobutoxy-pyridin-3-yl)-4-(1-methylcyclo-propoxy)pyrido[3,2-d] pyrimidin-2-amine] | 1 to 10 µM | < 0.1 µM | 
Fc1cc(-c2ccc3nc(NCc4cccc(-n5cncn5)c4)nc(NC4(C(F)(F)F)CC4)c3n2)cnc1NC1CC1 [Example 62, N^2-(3-(1H-1,2,4-triazol-1-yl)benzyl)-6-(6-(cyclopropylamino)-5-fluoropyridin-3-yl)-N^4-(1-(trifluoromethyl)cyclopropyl) pyrido[3,2-d]pyrimidine-2,4-diamine] | > 10 µM | < 0.1 µM | 
C[C@@H](Nc1nc(NCC(F)(F)F)c2nc(-c3cccc(S(C)(=O)=O)c3)ccc2n1)c1ccc(S(N)(=O)=O)cc1 [Example 17, (R)-4-{1-[6-(3-Methanesulfonyl-phenyl)-4-(2,2,2-trifluoro-ethylamino)-pyrido[3,2-d]pyrimidin-2-ylamino]-ethyl}-benzenesulfonamide] |  | < 0.1 µM | 10 to 25 µM
C#Cc1ccc2nc(N[C@H](C)c3ccc(S(N)(=O)=O)cc3)nc(OC(C)C)c2n1 [Example 306, (R)-4-(1-(6-ethynyl-4-isopropoxypyrido[3,2-d]pyrimidin-2-ylamino)ethyl) benzenesulfonamide] | < 1 µM | 0.25 to 2 µM | 
C[C@@H](Nc1nc(NC2(C(F)(F)F)CC2)c2nc(C#CC3CC3)ccc2n1)c1ccc(S(N)(=O)=O)cc1 [Example 69, (R)-4-(1-(6-(2-cyclopropylethynyl)-4-(1-(trifluoromethyl)cyclopropyl-amino)pyrido[3,2-d]pyrimidin-2-ylamino)ethyl)benzene-sulfonamide] | > 10 µM | < 0.1 µM | 
C[C@@H](Nc1nc(OC2CC2)c2nc(C#CC3CC3)ccc2n1)c1ccc(S(N)(=O)=O)cc1 [Example 32, (R)-4-(1-(4-cyclopropoxy-6-(2-cyclopropylethynyl)pyrido[3,2-d]pyrimidin-2-ylamino)ethyl)benzenesulfonamide] | > 10 µM | < 0.1 µM | 
[2H]C([2H])([2H])C([2H])([2H])Oc1ccc(-c2ccc3nc(NCc4ccc(-n5cncn5)cc4)nc(NCC(F)(F)F)c3n2)cn1 [Example 256, N^2-(4-(1H-1,2,4-triazol-1-yl)benzyl)-6-(6-pentadeutero-ethoxypyridin-3-yl)-N^4-(2,2,2-trifluoroethyl)pyrido[3,2-d] pyrimidine-2,4-diamine] | > 10 µM | < 0.1 µM | 
Cc1cc(S(N)(=O)=O)ccc1[C@H](C)Nc1nc(NC2(C(F)(F)F)CC2)c2nc(-c3ccc(F)cc3)ccc2n1 [Example 108, (S)-4-(1-(6-(4-fluorophenyl)-4-(1-(trifluoromethyl)cyclopropyl-amino)pyrido[3,2-d]pyrimidin-2-ylamino)ethyl)-3-methylbenzene-sulfonamide] | > 10 µM | 0.25 to 2 µM | 
Cc1cc(S(N)(=O)=O)c(C)cc1CNc1nc(NC2(C(F)(F)F)CC2)c2nc(-c3ccc(F)cc3)ccc2n1 [Example 83, 4-((6-(4-fluorophenyl)-4-(1-(trifluoromethyl)cyclopropylamino)pyrido[3,2-d]pyrimidin-2-ylamino)methyl)-2.5-dimethylbenzenesulfonamide] | > 10 µM | 0.1 to 0.25 µM | 
